The values that follow come from US20070287719A1, “Salts, Prodrugs and Formulations of 1-[5-(4-Amino-7-Isopropyl-7H-Pyrrolo[2,3-D]Pyrimidine-5-Carbonyl)-2-Methoxy-Phenyl]-3-(2,4-Dichloro-Phenyl)-Urea” (Pfizer Inc, priority 2005, published 2007).

Molecules are shown by their SMILES.

The Cmax is the maximum level reached in the sampled fluid or tissue. Broadly, the Tmax is the time at which the peak concentration occurs. What is called IC50 is the concentration needed to halve the response being measured. For orientation: Ki means a dissociation constant, usually derived from enzyme kinetics or from competition with a known ligand. High values mean a looser hold on the target, low ones a stronger hold on the target.

Series [1] is described as follows: Hygroscopicity of salt forms. It counts as physicochemical. The note with it: at 90 percent relative humidity at ambient temperature.
Series [2] can be described thus: Plasma pharmacokinetics after oral dosing, dog. The class given is in vivo. As to conditions: Dog (n = 3), 30 mg Active Agent/kg. As to the method:
(§1) Alternatively, the compositions of the present invention, when dosed orally to a human or other mammal, provide an AUC inhibitor concentration in the blood (herein referred to as a plasma AUC) that is at least about 4 fold that observed when a control composition comprising all equivalent quantity of undispersed drug is dosed. It is noted that such compositions can also be said to have a relative bioavailability of about 4. Preferably, the compositions of the present invention, when dosed orally to a human or other mammal, provide an AUC inhibitor concentration in the blood that is at least about 6 fold, more preferably at least about 10 fold, and even more preferably at least about 20 fold that observed when a control composition comprising an equivalent quantity of undispersed drug is dosed. […] An exemplary dosing vehicle would be a suspension solution of water containing 0.5 wt percent […] (such as METHOCEL) and 0.16 wt percent of the surfactant polyoxyethylene 20 sorbitan monooleate (such as TWEEN 80). Thus, the compositions of the present invention can be evaluated in either in vitro or in vivo tests, or both. […]
(§2) Relative bioavailability of inhibitor in the dispersions of the present invention can be tested in vivo in animals or humans using conventional methods for making such a determination. […] In an in vivo crossover study a “test composition” of inhibitor and polymer is dosed to half a group of test subjects and, after an appropriate washout period (e.g., one week) the same subjects are dosed with a “control composition” that comprises an equivalent quantity of inhibitor as the “test composition” (but with no polymer present). […] The relative bioavailability is measured as the concentration in the blood (serum or plasma) versus time area under the curve (AUC) determined for the test group divided by the AUC in the blood provided by the control composition. Preferably, this test/control ratio is determined for each subject, and then the ratios are averaged over all subjects in the study. […]

The nature of series [3]: In vitro dissolution test in Model Fasted Duodenal (MFD) solution. It counts as physicochemical. As to conditions: 1.8 mL MFD; 0.36 mg free base active agent or 1.44 mg active agent in spray dry dispersion. As to the method:
The compositions comprising the active agent and concentration-enhancing polymer provide enhanced concentration of the dissolved inhibitor in in vitro dissolution tests. It has been determined that enhanced drug concentration in in vitro dissolution tests in Model Fasted Duodenal (MFD) solution or Phosphate Buffered Saline (PBS) is a good indicator of in vivo performance and bioavailability. An appropriate PBS solution is an aqueous solution comprising 20 mM sodium phosphate (Na2HPO4), 47 mM potassium phosphate (KH2PO4), 87 mM sodium chloride (NaCl), and 0.2 mM potassium chloride (KCl), adjusted to pH 6.5 with sodium hydroxide (NaOH). An appropriate MFD solution is the same PBS solution wherein additionally is present 7.3 mM sodium taurocholic acid and 1.4 mM of 1-palmitoyl-2-oleyl-sn-glycero-3-phosphocholine. In particular, a composition of the present invention can be dissolution-tested by adding it to MFD or PBS solution and agitating to promote dissolution. […]
The concentration of dissolved inhibitor is typically measured as a function of time by sampling the test medium and plotting inhibitor concentration in the test medium vs. time so that the MDC can be ascertained. The MDC is taken to be the maximum value of dissolved inhibitor measured over the duration of the test. […]

The target of series [4] is T1, recombinant human erbB-TIE2 chimeric receptor overexpressed in C6 rat glioma cells (Homo sapiens, UniProt Q02763).
T1 construct: erbB extracellular domain with TIE2 intracellular domain; extracellular domain of human EGFR (erbB); expressed in transfected cells; host or cells: C6 rat glioma cells
T1 sequence (Q02763 770-1124 limits assumed, change not shown): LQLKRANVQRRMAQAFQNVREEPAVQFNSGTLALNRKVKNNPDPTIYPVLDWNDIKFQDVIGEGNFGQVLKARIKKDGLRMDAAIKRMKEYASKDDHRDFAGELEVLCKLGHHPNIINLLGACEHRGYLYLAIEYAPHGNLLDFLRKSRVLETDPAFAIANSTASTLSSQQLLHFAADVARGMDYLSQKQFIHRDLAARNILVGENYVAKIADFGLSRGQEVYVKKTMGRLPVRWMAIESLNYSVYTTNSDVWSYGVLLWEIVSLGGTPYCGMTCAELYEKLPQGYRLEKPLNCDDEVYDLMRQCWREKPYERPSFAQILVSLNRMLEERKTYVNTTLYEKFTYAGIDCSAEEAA
The experiment in a line: Cell-based TIE-2 kinase activity of chimeric receptor.

Series [5] deals with T2, fully activated recombinant GST-TIE2 construct (Homo sapiens, UniProt Q02763).
T2 construct: made in house; host or cells: insect cells (baculovirus)
T2 sequence (Q02763 23-1124): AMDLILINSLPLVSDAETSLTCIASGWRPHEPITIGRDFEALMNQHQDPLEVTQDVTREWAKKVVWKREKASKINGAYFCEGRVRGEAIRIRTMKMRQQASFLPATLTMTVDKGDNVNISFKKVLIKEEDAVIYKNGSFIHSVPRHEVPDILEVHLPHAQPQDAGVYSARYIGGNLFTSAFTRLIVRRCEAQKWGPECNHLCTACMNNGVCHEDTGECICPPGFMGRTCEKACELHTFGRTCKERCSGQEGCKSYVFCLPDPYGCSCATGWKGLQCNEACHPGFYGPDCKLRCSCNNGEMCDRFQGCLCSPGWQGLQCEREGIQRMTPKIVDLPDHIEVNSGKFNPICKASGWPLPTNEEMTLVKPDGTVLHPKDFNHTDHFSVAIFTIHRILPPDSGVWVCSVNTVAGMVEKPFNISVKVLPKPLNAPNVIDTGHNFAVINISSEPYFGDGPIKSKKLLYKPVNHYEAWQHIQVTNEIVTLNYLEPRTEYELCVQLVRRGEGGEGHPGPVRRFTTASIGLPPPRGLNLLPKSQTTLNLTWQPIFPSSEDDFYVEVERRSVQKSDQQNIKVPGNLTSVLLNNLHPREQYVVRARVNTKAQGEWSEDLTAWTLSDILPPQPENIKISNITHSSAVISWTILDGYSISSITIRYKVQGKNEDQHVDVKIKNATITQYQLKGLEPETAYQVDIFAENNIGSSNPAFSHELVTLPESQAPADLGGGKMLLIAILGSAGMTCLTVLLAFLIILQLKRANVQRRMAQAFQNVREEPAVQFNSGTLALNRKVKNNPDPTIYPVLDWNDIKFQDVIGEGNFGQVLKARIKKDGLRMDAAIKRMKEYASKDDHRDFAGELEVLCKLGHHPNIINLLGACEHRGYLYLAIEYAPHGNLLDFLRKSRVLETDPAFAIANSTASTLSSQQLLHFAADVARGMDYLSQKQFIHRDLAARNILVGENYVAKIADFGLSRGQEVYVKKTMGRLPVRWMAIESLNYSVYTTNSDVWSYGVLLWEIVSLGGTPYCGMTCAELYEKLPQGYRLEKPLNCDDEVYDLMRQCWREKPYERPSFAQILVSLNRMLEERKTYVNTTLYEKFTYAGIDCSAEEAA
In words: Tie-2 tyrosine kinase inhibition, GST-Tie-2 fusion protein, PGT plate ELISA. The class given is biochemical. On the procedure: (§3) The crystalline and non-crystalline forms and formulations of 1-[5-(4-Amino-7-isopropyl-7H-pyrrolo[2,3-d[pyrimidine-5-carbonyl)-2-methoxy-phenyl]-3-(2 4-dichloro-phenyl)-urea are selective inhibitors of the tyrosine kinases, Tie-2, TrkA and related family member TrkB. The potentcy of these forms and formulations of the present invention at the tyrosine kinases may be determined using the following assays.
Inhibition of Tie-2 tyrosine kinase activity is measured in 96-well Maxisorp plates (Nunc) coated with poly-Glu-Tyr (PGT 4:1 Sigma) by the addition of 100 μL/well of a 25 μg/mL solution of PGT in PBS. Plates are incubated at 37° C. overnight, and transferred to 4° C. until use. Prior to compound testing, appropriate dilutions of compounds are made in 96-well polypropylene plates. […] GST-Tie-2 would be previously isolated from insect cells infected with GST-Tie-2 baculoviruses, and used at concentrations determined to provide OD450 signals of approximately 1.0 in the presence of ATP and the absence of chemical inhibitors. […] The bound HRP-PY20 antibody can be detected by the addition of 70 μL/well TMB microwell substrate (KPL), and color development terminated by the addition of an equal volume of 0.9 M H2SO4. The background signal from wells lacking ATP can be subtracted from all ATP-stimulated wells, and IC50 values calculated.

The nature of series [6]: Plasma pharmacokinetics after oral dosing, rat. The class given is in vivo. As to conditions: Rat (n = 4), 100 mg Active Agent/kg. As to the method:
as §1, §2

In series [7] the target is inactive (unphosphorylated) TIE2 kinase (Homo sapiens, UniProt Q02763). In words: Inhibition of inactive TIE2 kinase. It counts as biochemical.
Chain of inactive (unphosphorylated) TIE2 kinase (Q02763 23-1124): as above
Description: as §3

With `COc1ccc(C(=O)c2cn(C(C)C)c3ncnc(N)c23)cc1NC(=O)Nc1ccc(Cl)cc1Cl.O=S(=O)(O)c1ccccc1` [Example 8, 1-[5-(4-Amino-7-isopropyl-7H-pyrrolo[2,3-d]pyrimidine-5-carbonyl)-2-methoxy-phenyl]-3-(2,4-dichloro-phenyl)-urea•Besylate], the Hygroscopicity in series [1] was 2.0 percent (by weight).

As to `COc1ccc(C(=O)c2cn(C(C)C)c3ncnc(N)c23)cc1NC(=O)Nc1ccc(Cl)cc1Cl.CS(=O)(=O)O` [Example 3, 1-[5-(4-Amino-7-isopropyl-7H-pyrrolo[2,3-d]pyrimidine-5-carbonyl)-2-methoxy-phenyl]-3-(2,4-dichloro-phenyl)-urea•Mesylate (Polymorph A)], in series [1], the Hygroscopicity is given as 1.6 percent (by weight).

With `COc1ccc(C(=O)c2cn(C(C)C)c3ncnc(N)c23)cc1NC(=O)Nc1ccc(Cl)cc1Cl.CS(=O)(=O)O` [Example 2, 1-[5-(4-Amino-7-isopropyl-7H-pyrrolo[2,3-d]pyrimidine-5-carbonyl)-2-methoxy-phenyl]-3-(2,4-dichloro-phenyl)-urea•Mesylate (Form B)], in series [1], the Hygroscopicity is listed as 7.9 percent (by weight).

Regarding `COc1ccc(C(=O)c2cn(C(C)C)c3ncnc(N)c23)cc1NC(=O)Nc1ccc(Cl)cc1Cl.O=P(O)(O)O` [Example 1, 1-[5-(4-Amino-7-isopropyl-7H-pyrrolo[2,3-d]pyrimidine-5-carbonyl)-2-methoxy-phenyl]-3-(2,4-dichloro-phenyl)-urea•Phosphate], the Hygroscopicity in series [1] was 0.8 percent (by weight).

For `COc1ccc(C(=O)c2cn(C(C)C)c3ncnc(N)c23)cc1NC(=O)Nc1ccc(Cl)cc1Cl` [1-[5-(4-amino-7-isopropyl-7H-pyrrolo[2,3-d]pyrimidine-5-carbonyl)-2-methoxy-phenyl]-3-(2,4-dichloro-phenyl)-urea], the peak concentration (Cmax) amounted to 347 ± 556 ng/mL in series [2] and 191 ± 153 ng/mL in series [6]. Also, the Tmax was found to be 4 ± 2 h in series [2] and 4.5 ± 1 h in series [6]. The AUC(0-t) in series [2] (read-out: AUC0-24) worked out at 2810 ± 4550 ng·h/mL; in series [6] (read-out: AUC0-24) it was 1300 ± 940 ng·h/mL. Besides, the “AUC (aqueous concentration versus time)” value in series [3] was 100 µg·min/mL. The “MDC (Maximum Drug Concentration)” value in series [3] stood at 3 µg/mL. The figures for the IC50 in series [4] and in series [5] were 4.67 nM and 280 nM, respectively. Moreover, affinity in series [7] was put at a Ki of 23 nM.

On to `COc1ccc(C(=O)c2cn(C(C)C)c3ncnc(N)c23)cc1NC(=O)Nc1ccc(Cl)cc1Cl.Cc1ccc(S(=O)(=O)O)cc1` [Example 9, 1-[5-(4-Amino-7-isopropyl-7H-pyrrolo[2,3-d]pyrimidine-5-carbonyl)-2-methoxy-phenyl]-3-(2,4-dichloro-phenyl)-urea•Tosylate], for which the Hygroscopicity in series [1] is recorded as 1.1 percent (by weight).
